These results are taken from patent publication US11319289B2, “5-hydroxy pyridine-based compound for use as P2X1 and P2X3 receptor antagonist and pharmaceutical composition comprising same” (GWANGJU INSTITUTE OF SCIENCE AND TECHNOLOGY, priority 2017, dated 2022).

Like-named read-outs stand apart in the source and are kept apart here.

Data set [1] addresses T1, human P2X3 receptor (hP2X3) (Homo sapiens, UniProt P56373).
T1 construct: expressed in transfected cells; host or cells: Xenopus oocytes (cRNA microinjection)
T1 sequence (P56373 1-397): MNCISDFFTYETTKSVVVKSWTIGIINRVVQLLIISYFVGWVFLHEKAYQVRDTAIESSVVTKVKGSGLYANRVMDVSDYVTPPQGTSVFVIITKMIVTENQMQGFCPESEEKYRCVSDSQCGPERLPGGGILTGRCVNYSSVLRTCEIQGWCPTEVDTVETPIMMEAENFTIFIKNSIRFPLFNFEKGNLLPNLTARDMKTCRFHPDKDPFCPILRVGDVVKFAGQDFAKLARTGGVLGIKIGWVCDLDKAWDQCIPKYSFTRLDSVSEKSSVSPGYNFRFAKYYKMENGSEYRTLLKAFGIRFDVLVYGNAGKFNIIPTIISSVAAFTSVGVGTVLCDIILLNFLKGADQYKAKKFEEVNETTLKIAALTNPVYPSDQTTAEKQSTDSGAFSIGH
The experiment in a line: Two-electrode voltage clamp assay, recombinant hP2X3 receptor in Xenopus oocytes. Format: cell-based. To be noted: for IC50: 2 μM ATP-evoked current, Xenopus oocytes, mean±SEM n≥3 (footnote d). In short, it runs like this: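 Xenopus oocytes injected with mP2X1 or hP2X3 cRNA; ATP-activated currents recorded by two-electrode voltage clamp at Vh=−70 mV in Ringer's solution (pH 7.5, 18° C.). Compounds applied 20 min before 2 μM ATP; IC50 from Hill plots of ATP-evoked current inhibition, mean±SEM (n≥3).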
In general terms: Two-electrode voltage clamp holds a large cell at a set potential and records current.

Data set [2] in a line: Plasma and brain concentrations after intravenous administration of Compound 28 in rats. The settings on record: for concentration in the brain tissue: 0.5 hour after intravenous administration of Compound 28; for Kp / concentration at 0.5 h / concentration at 2 h / concentration at 4 h / concentration at 8 h / Kp at 0.5 h / Kp at 2 h / Kp at 4 h / Kp at 8 h: male, rat, iv; for Kp: SD, 5 mg/kg, after i.v. Compound 28, over the time points of Table 6, read-out: brain to plasma ratio; for Kp / Kp at 0.5 h / Kp at 2 h / Kp at 4 h / Kp at 8 h: brain/plasma; for concentration at 0.5 h / Kp at 0.5 h: 0.5 hr after i.v. Compound 28 5 mg/kg; for concentration at 0.5 h / concentration at 2 h / concentration at 4 h / concentration at 8 h / Kp at 0.5 h / Kp at 2 h / Kp at 4 h / Kp at 8 h: rats, mean±SD; for concentration at 2 h / Kp at 2 h: 2 hr after i.v. Compound 28 5 mg/kg; for concentration at 4 h / Kp at 4 h: 4 hr after i.v. Compound 28 5 mg/kg; for concentration at 8 h / Kp at 8 h: 8 hr after i.v. Compound 28 5 mg/kg; for Kp at 0.5 h / Kp at 2 h / Kp at 4 h / Kp at 8 h: read-out: Brain to plasma ratio. Format: in vivo, SD rats. The protocol: 7 to 8-weeks old male SD rats (weight of 250 to 290 g) were purchased from SAMTACO (Osan, […], South Korea) and given commercial rat feed (SAMTACO, Osan, Kyungki-Do, South Korea) and water to be consumed freely. 3 rats were housed per each cage at a temperature of 23±2° C. and a relative humidity of 50 to 60% under light-darkness cycles of 12±12 hours. The rats were allowed to acclimate to these conditions for at least one week before the experiments was carried out. The rats were fasted for 12 hours before the experiment and given the tap water to be consumed freely. Compound 28 was administered to the caudal vein at a dose of 5 mg/kg. At 0.5, 2, 4 and 8 hours after intravenous administration, each animal was sacrificed by cervical dislocation. Blood samples were centrifuged at 12,000 rpm for 5 minutes and immediately stored at […] until analysis. After collecting the blood samples, the brains were harvested. Then, the brain tissues were accurately weighed and homogenized with 4-fold volumes of distilled water (IKA T10 basic homogenizer, IKA, Staufen, Germany). The homogenized brain samples were centrifuged at 12,000 rpm for 10 minutes and stored at −20° C. until analysis of 500 μl aliquots. Quantification of the samples was performed using an LC-MS/MS system. The HPLC system is composed of an Agilent 1290 series rapid resolution LC system that includes a binary pump (model: G4220A), an autosampler (model: G4226A) and a column oven (model: G1316C). Mass spectrometer analysis was performed using a Sciex 4000 Q-Trap® mass spectrometer (Applied Biosystems Sciex, Toronto, Ontario, Canada) equipped with an electrospray ionization source. Data acquisition and quantification were performed using the Analyst software version 1.6 from AB SCIEX, and chromatographic separations were performed using Gemini NX C18 (2.0×100 mm, 3 μm, Phenomenex, USA). The mobile phase consisted of ACN (0.1% formic acid) and water (0.1% formic acid) (50:50, v/v). The flow rate was 0.25 mL/min, and the injection volume was set at 5 μL. Mass spectrometry was optimized and performed using a multiple reaction monitoring (MRM) scan in cation mode. The m/z transition was set from 392.1 to 360.2 for Compound 28 and from 378.2 to 360.2 for Compound 29. Preparation of plasma and brain homogenous samples includes protein precipitation with acetonitrile. In 1.5 mL polyethylene microtubes, 5 μL of IS (cimetidine, 10 μg/ml) was added to 50 μL of plasma or tissue homogenate. Subsequently, 150 μl of acetonitrile (extraction solvent) was added to the tube. After vortexing for 30 seconds, the mixture was centrifuged for 5 minutes at 12,000 rpm. 10 μl of supernatant was injected directly into the HPLC column.

The mark [3] stands for this setting: brain, read-out: Brain concentration.
Setting [4] is: plasma, read-out: Plasma concentration.

Turning to `CCCc1nc(Cc2cccc(Oc3ccccc3)c2)c(C)c(C(=O)O)c1O` [Compound 29, 3-Hydroxy-5-methyl-6-(3-phenoxybenzyl)-2-propylisonicotinic acid], the IC50 in data set [1] is 245 nM. Moreover, in data set [2], the “concentration in the brain tissue” value was 0.022 μg/g tissue, the Kp is less than 0.25, the Kp at 0.5 h was determined as 0.24 ± 0.13 and the Kp at 2 h turned out to be 0.08 ± 0.02. For the same molecule, in data set [2], the Kp at 4 h turned out to be 0.05 ± 0.03 and the Kp at 8 h came to 0.1 ± 0.12. In addition, in data set [2] (setting [3]), the concentration at 0.5 h was found to be 22 ± 3 ng/g, the concentration at 2 h came out at 2 ± 1 ng/g, the concentration at 4 h amounted to 1 ng/g and the concentration at 8 h was found to be 1 ± 1 ng/g. Further, in data set [2] (setting [4]), the concentration at 0.5 h was 110 ± 50 ng/mL, the concentration at 2 h stood at 30 ng/mL, the concentration at 4 h was determined as 20 ± 10 ng/mL and the concentration at 8 h worked out at 10 ng/mL.
`CCCc1nc(CCc2ccc(OC)cc2)c(C(=O)O)c(C(=O)O)c1O` [Compound 13d, 5-Hydroxy-2-(4-methoxyphenethyl)-6-propylpyridine-3,4-dicarboxylic acid]: the IC50 in data set [1] stood at 93 nM. The “selectivity for hP2X3R to mP2X1R” value in data set [1] (hP2X3R versus mP2X1R) is reported as “about 100 fold”.
In the case of `CCCc1nc(Cc2cccc(Oc3ccccc3)c2)c(C)c(C(=O)OC)c1O` [Compound 28, Methyl 3-hydroxy-5-methyl-6-(3-phenoxybenzyl)-2-propylisonicotinate], in data set [2] (0.5 hour after i.v. Compound 28), the “brain concentration of Compound 28 relative to Compound 29” value was determined as 50 times. Further, in data set [2], the “concentration in the brain tissue” value was 1.11 μg/g tissue, the Kp was in the range of 1.13 to 1.79, the Kp at 0.5 h amounted to 1.79 ± 0.44 and the Kp at 2 h was 1.13 ± 0.25. Further, in data set [2], the Kp at 4 h was found to be 0.94 ± 0.21 and the Kp at 8 h was determined as 1.19 ± 0.41. In data set [2] (setting [3]), the concentration at 0.5 h worked out at 1110 ± 360 ng/g, the concentration at 2 h turned out to be 90 ± 10 ng/g, the concentration at 4 h was found to be 50 ± 10 ng/g and the concentration at 8 h is 30 ± 10 ng/g. In addition, in data set [2] (setting [4]), the concentration at 0.5 h turned out to be 620 ± 140 ng/mL, the concentration at 2 h was 80 ± 20 ng/mL, the concentration at 4 h came to 60 ± 10 ng/mL and the concentration at 8 h was 20 ± 10 ng/mL.

In general, IC50 refers to the concentration at which inhibition is half-maximal.
